How the values were obtained:
MED1 = molecular target: T1, MED1 (Homo sapiens, UniProt Q15648); experiment: In vitro droplet assay, small molecule partitioning into MED1 condensates; assay type: binding; conditions: confocal fluorescence; Example 2: 125 mM NaCl, 10% PEG, 10 μM protein; fluorescent or fluorescently labeled drug
T1 construct: MED1—amino acids 600-1581; 6xHis (N); made in house; host or cells: LOBSTR cells (E. coli)
Description: (§1) Recombinant BFP, GFP, or mCherry fusion proteins were concentrated and desalted to an appropriate protein concentration and 125 mM NaCl using Amicon Ultra centrifugal filters (30K MWCO, Millipore). Recombinant protein was added too. […] The protein solution was immediately loaded onto glass bottom 384 well plate (Cellvis P384-1.5H-N) and imaged with an Andor confocal microscope with a 150× objective. Unless indicated, images presented are of droplets settled on the glass coverslip.
(§2) Drug and small molecule concentrations used in the droplet experiments are as follows:
To analyze in vitro droplet experiments, custom Python scripts using the scikit-image package were written to identify droplets and characterize their size, shape and intensity. Droplets were segmented from average images of captured channels on various criteria: (1) an intensity threshold that was three s.d. above the mean of the image; (2) size thresholds (20 pixel minimum droplet size); and (3) a minimum circularity (circularity=4π·areaperimeter2) (circularity=4π·areaperimeter2) of 0.8 (1 being a perfect circle). After segmentation, mean intensity for each droplet was calculated while excluding pixels near the phase interface, and background-corrected by subtracting intensity of dark images of droplet formation buffer only. Droplets identified in the channel of the fluorescent protein from ten independent fields of view were quantified for each experiment. The maximum intensity of signal within the droplets was calculated for each channel, the maximum intensity in the drug channel was termed “maximum drug intensity”. To obtain the intensity of drug or dye alone in the diffuse state (termed “diffuse drug intensity”), the compound was added to droplet formation buffer at same concentration used in the droplet assay. This was then imaged on a confocal fluorescent microscope. The resulting image was processed in FIJI to obtain the fluorescent intensity of the field. To obtain the fluorescent intensity of protein droplets that bleed through in the drug channel (termed “background intensity”) protein droplets were imaged in the fluorescent channel in which the drug fluoresces and processed as above to obtain the average maximum intensity within the droplet across 10 images. The enrichment ratio was obtained by the following formula [(maximum drug intensity)−(background intensity)]/(diffuse drug intensity). The box plots show the distributions of all droplets. Each dot represents an individual droplet.

HP1α = molecular target: T2, HP1α (Homo sapiens, UniProt P45973); experiment: In vitro droplet assay, small molecule partitioning into HP1α condensates; assay type: binding
T2 construct: HP1α—full length, amino acids 1-191; 6xHis (N); made in house; host or cells: LOBSTR cells (E. coli)
Description: as §1, §2
To analyze in vitro droplet experiments, custom Python scripts using the scikit-image package were written to identify droplets and characterize their size, shape and intensity. […] After segmentation, mean intensity for each droplet was calculated while excluding pixels near the phase interface, and background-corrected by subtracting intensity of dark images of droplet formation buffer only. Droplets identified in the channel of the fluorescent protein from ten independent fields of view were quantified for each experiment. The maximum intensity of signal within the droplets was calculated for each channel, the maximum intensity in the drug channel was termed “maximum drug intensity”. […]

MED1 condensates = molecular target: T3, MED1 condensates (Homo sapiens, UniProt Q15648); experiment: Determination of partitioning by spectrophotometry and quantitative phase microscopy; assay type: binding
T3 construct: MED1—amino acids 600-1581; 6xHis (N); made in house; host or cells: LOBSTR cells (E. coli)
Excerpt: Here, an expression is derived briefly for the partition coefficient of a client molecule into a condensed phase in terms of quantities that are readily measurable experimentally. A sample composed of two coexisting phases is considered, named dilute and condensed, with volume fractions ϕdilute and […]. If a client molecule (e.g. a drug) is also present in the sample at an average concentration of ctotal, then mass conservation requires that
the ratio is estimated ctotal/cdilute from fluorescence spectroscopy measurements, as described in a subsequent section, while ϕcond, it is inferred from the lever rule (M. Rubinstein, R. H. Colby, Polymer Phyics (Oxford University Press, 2003) as follows: denoting the concentration of scaffold protein (e.g. MED1) by s, mass conservation gives stotal=sdiluteϕdilute+scondϕcond, in analogy with Eq. 1. Again using the requirement that the volume fractions of coexisting phases sum to 1, this can be rearranged to yield
where stotal and sdilute are measured spectrophotometrically from optical absorbance at 280 nm, and scond is measured from quantitative phase microscopy, using a coherence-controlled holographic microscope (Q-Phase, Telight (formerly TESCAN), Bmo, CZ) equipped with 40× dry objectives (NA=0.90). […]
where A is the measured absorbance (in Absorbance Units (AU)), I0 is the intensity of the incident light at a given wavelength, I is the transmitted intensity, L the path length through the sample, and c the concentration of the absorbing species. […] The partitioned drug was measured by using spin down assay. […] The supernatant was collected and measured the concentrations of the drug. The partitioned drug was calculated by subtracting from the total known concentration of drug added.
Quantitative phase measurements were performed using a coherence-controlled holographic microscope (Q-Phase, Telight (formerly TESCAN), Brno, CZ) equipped with 40× dry objectives (NA=0.90) as follows. […]
Q-PHASE software was used to construct compensated phase images from acquired holograms, which were subsequently analyzed in MATLAB using custom code. […]

[1] = Droplet formation assay of small molecule alone without any protein; assay type: physicochemical; conditions: without any protein added
Description: as §1, with “Recombinant protein was added too.” left out

[2] = system: DNA in MED1 or HP1α droplets; experiment: Cisplatin-DNA engagement assay; assay type: biochemical; conditions: size-shift on a bioanalyzer; cisplatin 0-2 mM
Description: MED1-IDR-BFP and HP1a-BFP droplets were formed by mixing 10 μM protein with the droplet formation buffer containing 50 mM Tris-HCl pH 7.5, 100 mM NaCl, 10% PEG 8000, 10% glycerol, 1 mM DTT and 5 ng/ul DNA in a 10 μl reaction volume. The droplet reactions were incubated for 30 min at RT. Next, increasing concentrations of activated Cisplatin (0, 0.5, 0.75, 1, 1.5, and 2 mM) were added to the droplet reactions and incubated for another 30 min at RT. The reactions are then treated with 1 μl of Proteinase K (Invitrogen, 20 mg/ml) for 4 hr at 55° C. Platination of DNA was visualized by size-shift on a bioanalyzer.

T3 sequence (Q15648 600-1581): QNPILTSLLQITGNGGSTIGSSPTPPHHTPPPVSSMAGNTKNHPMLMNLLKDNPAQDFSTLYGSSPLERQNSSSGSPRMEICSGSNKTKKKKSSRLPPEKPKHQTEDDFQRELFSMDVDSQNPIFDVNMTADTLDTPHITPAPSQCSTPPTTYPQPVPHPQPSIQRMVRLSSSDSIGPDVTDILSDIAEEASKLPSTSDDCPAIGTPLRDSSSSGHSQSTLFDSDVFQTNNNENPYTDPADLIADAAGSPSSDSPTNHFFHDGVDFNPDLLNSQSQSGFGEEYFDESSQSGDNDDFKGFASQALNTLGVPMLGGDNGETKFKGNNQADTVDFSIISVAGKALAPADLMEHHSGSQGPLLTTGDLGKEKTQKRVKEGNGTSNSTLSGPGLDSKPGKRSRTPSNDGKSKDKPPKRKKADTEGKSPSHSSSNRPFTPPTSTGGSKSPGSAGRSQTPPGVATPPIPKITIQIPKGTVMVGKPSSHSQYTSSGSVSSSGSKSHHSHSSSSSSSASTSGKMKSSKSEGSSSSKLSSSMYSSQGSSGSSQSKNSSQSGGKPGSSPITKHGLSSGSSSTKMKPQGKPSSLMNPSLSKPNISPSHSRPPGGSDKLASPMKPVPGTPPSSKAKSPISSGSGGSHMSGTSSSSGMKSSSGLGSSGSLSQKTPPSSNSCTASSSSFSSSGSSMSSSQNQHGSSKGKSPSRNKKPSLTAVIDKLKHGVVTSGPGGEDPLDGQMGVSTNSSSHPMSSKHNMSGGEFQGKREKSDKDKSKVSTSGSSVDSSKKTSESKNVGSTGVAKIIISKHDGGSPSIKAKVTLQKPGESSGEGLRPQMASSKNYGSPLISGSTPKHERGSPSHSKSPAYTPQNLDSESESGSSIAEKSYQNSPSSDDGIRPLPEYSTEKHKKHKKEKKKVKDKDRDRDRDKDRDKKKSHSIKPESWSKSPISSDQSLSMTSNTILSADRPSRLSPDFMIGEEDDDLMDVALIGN
T1 sequence (Q15648 600-1581): as above
T2 sequence (P45973 whole entry, the tested form may be a part): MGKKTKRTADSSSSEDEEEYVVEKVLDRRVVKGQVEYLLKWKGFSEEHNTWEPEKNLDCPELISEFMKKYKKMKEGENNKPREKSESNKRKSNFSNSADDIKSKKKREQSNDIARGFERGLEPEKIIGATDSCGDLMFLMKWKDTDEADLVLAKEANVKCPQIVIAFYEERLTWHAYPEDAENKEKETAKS

With N.N.[Cl][Pt][Cl] [cisplatin] the “partitioning / incorporation into MED1 droplets” value (MED1) was “selectively concentrated in MED1 droplets”, the “partitioning / incorporation into HP1α droplets” value (HP1α) was “freely diffuses” and the “partition coefficient in MED1 droplets” value (MED1 condensates) was “up to 600”. For the same compound, the “partition ratio in MED1 condensates” value (MED1 condensates; uv spectroscopy of drug remaining in solution plus condensate volume estimate) was “up to 600 fold”, the “droplet formation of small molecule alone” value [1] was “diffuse fluorescent signal” and the “DNA platination in MED1 versus HP1α condensates” value [2] was “more efficiently platinated in MED1 condensates than in HP1α condensates”.
